Among the data in US20090318424A1, “NOVEL COMPOUNDS” (priority 2006, published 2009) are melting point values, retold here.

The compound `CCN(CC)C(=O)c1ccc(C)c(-c2nc(NCCN(C)C)nc3c2CNC(=O)N3c2c(F)cccc2F)c1` [156(c), 3-(8-(2,6-difluorophenyl)-2-{[2-(dimethylamino)ethyl]amino}-7-oxo-5,6,7,8-tetrahydropyrimido[4,5-d]pyrimidin-4-yl)-N,N-diethyl-4-methylbenzamide] displayed a melting point of 125 to 127 °C.

Turning to `CCOc1nc(-c2cc(NC(=O)c3ccsc3)ccc2C)c2c(n1)N(c1c(F)cccc1F)C(=O)NC2` [Example 13, N-{3-[8-(2,6-difluorophenyl)-2-(ethyloxy)-7-oxo-5,6,7,8-tetrahydropyrimido[4,5-d]pyrimidin-4-yl]-4-methylphenyl}-3-thiophenecarboxamide], the melting point is 199 to 202 °C (dec.).

As to `CCN(CC)C(=O)c1ccc(C)c(-c2nc(N3CCN(C)CC3)nc3c2CNC(=O)N3c2c(F)cccc2F)c1` [Example 162, 3-[8-(2,6-difluorophenyl)-2-(4-methyl-1-piperazinyl)-7-oxo-5,6,7,8-tetrahydropyrimido[4,5-d]pyrimidin-4-yl]-N,N-diethyl-4-methylbenzamide], the melting point is 201 to 205 °C (dec.).

Regarding `Cc1ccc(C(=O)NCc2ccccc2)cc1-c1nc(NCCNC(C)C)nc2c1CNC(=O)N2c1c(F)cccc1F` [Example 20, 3-[8-(2,6-Difluorophenyl)-2-({2-[(1-methylethyl)amino]ethyl}amino)-7-oxo-5,6,7,8-tetrahydropyrimido[4,5-d]pyrimidin-4-yl]-4-methyl-N-(phenylmethyl)benzamide], the melting point was 133 to 137 °C.

As to `CCN(CC)C(=O)c1ccc(C)c(-c2nc(NCCNC(C)C)nc3c2CNC(=O)N3c2c(F)cccc2F)c1` [Example 160, 3-[8-(2,6-difluorophenyl)-2-({2-[(1-methylethyl)amino]ethyl}amino)-7-oxo-5,6,7,8-tetrahydropyrimido[4,5-d]pyrimidin-4-yl]-N,N-diethyl-4-methylbenzamide], the melting point was in the range of 89 to 91 °C.

`CNC(=O)c1ccc(C)c(-c2nc(NCCCNC(C)(C)C)nc3c2CNC(=O)N3c2c(F)cccc2F)c1` [Example 170, 3-[8-(2,6-difluorophenyl)-2-({3-[(1,1-dimethylethyl)amino]propyl}amino)-7-oxo-5,6,7,8-tetrahydropyrimido[4,5-d]pyrimidin-4-yl]-N,4-dimethylbenzamide]: the melting point was 166 to 170 °C (dec.).

In the case of `Cc1ccc(C(=O)N(C)C)cc1-c1nc(N(C)CCCN(C)C)nc2c1CNC(=O)N2c1c(F)cccc1F` [Example 154, 3-{8-(2,6-difluorophenyl)-2-[[3-(dimethylamino)propyl](methyl)amino]-7-oxo-5,6,7,8-tetrahydropyrimido[4,5-d]pyrimidin-4-yl}-N,N,4-trimethylbenzamide], the melting point lay in the range of 114 to 118 °C.

Regarding `CNC(=O)c1ccc(C)c(-c2nc(NCCNC(C)C)nc3c2CNC(=O)N3c2c(F)cccc2F)c1` [Example 167, 3-[8-(2,6-difluorophenyl)-2-({2-[(1-methylethyl)amino]ethyl}amino)-7-oxo-5,6,7,8-tetrahydropyrimido[4,5-d]pyrimidin-4-yl]-N,4-dimethylbenzamide], the melting point is 136 to 139 °C (dec.).

For the compound `CCOc1nc(-c2cc(NC(=O)c3ccc(C)c(F)c3)ccc2C)c2c(n1)N(c1c(F)cccc1F)C(=O)NC2` [Example 25, N-{3-[8-(2,6-difluorophenyl)-2-(ethyloxy)-7-oxo-5,6,7,8-tetrahydropyrimido[4,5-d]pyrimidin-4-yl]-4-methylphenyl}-3-fluoro-4-methylbenzamide], the melting point lay within 257.3 to 262.5 °C.

Regarding `CNc1nc(-c2cc(NC(=O)c3ccsc3)ccc2C)c2c(n1)N(c1c(F)cccc1F)C(=O)NC2` [Example 14, N-{3-[8-(2,6-difluorophenyl)-2-(methylamino)-7-oxo-5,6,7,8-tetrahydropyrimido[4,5-d]pyrimidin-4-yl]-4-methylphenyl}-3-thiophenecarboxamide], the melting point was 203 to 207 °C (dec.).

On to `Cc1ccc(C(=O)NCc2ccccc2)cc1-c1nc(NC2CCN(C)CC2)nc2c1CNC(=O)N2c1c(F)cccc1F` [Example 22, 3-{8-(2,6-Difluorophenyl)-2-[(1-methyl-4-piperidinyl)amino]-7-oxo-5,6,7,8-tetrahydropyrimido[4,5-d]pyrimidin-4-yl}-4-methyl-N-(phenylmethyl)benzamide], for which the melting point was 152 to 154 °C (dec.).

Compound `Cc1ccc(C(=O)Nc2ccc(C)c(-c3nc(NC4CCNCC4)nc4c3CNC(=O)N4c3c(F)cccc3F)c2)cc1F` [Example 27(b), N-{3-[8-(2,6-difluorophenyl)-7-oxo-2-(4-piperidinylamino)-5,6,7,8-tetrahydropyrimido[4,5-d]pyrimidin-4-yl]-4-methylphenyl}-3-fluoro-4-methylbenzamide] came in with a melting point of 218 to 223.5 °C.

`CCN(CC)C(=O)c1ccc(C)c(-c2nc(NC3CCN(C)CC3)nc3c2CNC(=O)N3c2c(F)cccc2F)c1` [Example 159, 3-{8-(2,6-difluorophenyl)-2-[(1-methyl-4-piperidinyl)amino]-7-oxo-5,6,7,8-tetrahydropyrimido[4,5-d]pyrimidin-4-yl}-N,N-diethyl-4-methylbenzamide]: the melting point was 165 to 169 °C.

For the compound `Cc1ccc(C(=O)N(C)C)cc1-c1nc(NCCN(C)C)nc2c1CNC(=O)N2c1c(F)cccc1F` [Example 152, 3-(8-(2,6-difluorophenyl)-2-{[2-(dimethylamino)ethyl]amino}-7-oxo-5,6,7,8-tetrahydropyrimido[4,5-d]pyrimidin-4-yl)-NN,4-trimethylbenzamide], the melting point lay in the range of 138 to 142 °C.

In the case of `Cc1ccc(C(=O)N(C)C)cc1-c1nc(NCCNC(C)C)nc2c1CNC(=O)N2c1c(F)cccc1F` [Example 153, 3-[8-(2,6-difluorophenyl)-2-({2-[(1-methylethyl)amino]ethyl}amino)-7-oxo-5,6,7,8-tetrahydropyrimido[4,5-d]pyrimidin-4-yl]-N,N,4-trimethylbenzamide], the melting point was 130 to 133 °C.

Compound `Cc1ccc(C(=O)NCc2ccccc2)cc1-c1nc(NCCN(C)C)nc2c1CNC(=O)N2c1c(F)cccc1F` [Example 18, 3-(8-(2,6-Difluorophenyl)-2-{[2-(dimethylamino)ethyl]amino}-7-oxo-5,6,7,8-tetrahydropyrimido[4,5-d]pyrimidin-4-yl)-4-methyl-N-(phenylmethyl)benzamide] yielded a melting point of 148 to 150 °C.

With `Cc1ccc(C(=O)N(C)C)cc1-c1nc(N2CCN(C)CC2)nc2c1CNC(=O)N2c1c(F)cccc1F` [149(c), 3-[8-(2,6-difluorophenyl)-2-(4-methyl-1-piperazinyl)-7-oxo-5,6,7,8-tetrahydropyrimido[4,5-d]pyrimidin-4-yl]-N,N,4-trimethylbenzamide], the melting point was 159 to 162 °C.

In the case of `Cc1ccc(NC(=O)c2ccsc2)cc1-c1nc(N(C)C)nc2c1CNC(=O)N2c1c(F)cccc1F` [Example 12, N-{3-[8-(2,6-difluorophenyl)-2-(dimethylamino)-7-oxo-5,6,7,8-tetrahydropyrimido[4,5-d]pyrimidin-4-yl]-4-methylphenyl}-3-thiophenecarboxamide], the melting point lay within 214 to 215 °C.
